Measurements taken from US10851129B2, “Composition, crocins active site, and uses thereof” (Jinan University, priority 2016, dated 2020).

Test system: SH-SY5Y nerve cells
Experiment: Neuroprotection in SH-SY5Y cell damage model induced by L-glutamic acid (MTT)
Assay type: cell-based
Conditions: L-glutamic acid 160 mM, 24 h, effective rate %
Procedure: SH-SY5Y nerve cells were cultured in DMEM medium (containing 5% fetal calf serum by volume fraction) which were placed in an incubator containing 5% CO2 under 37° C. They were subcultured once every 3-4 days. Cells in logarithmic phase were used for test
SH-SY5Y cells were inoculated in a 96-well plate at a concentration of 5×10^3 and continued to culture for 24 h. […] 3 parallel wells were arranged for each concentration. They were continued to culture for 24 h. 24 h later, the supernatant was pipetted out and discarded. 100 μL MTT (0.5 mg/mL) was added into each well. They were further incubated for 4 h. Then the supernatant was pipetted out and discarded. 150 μL DMSO was added into each well. They were vibrated for 10 min. A wavelength of 570 nm was selected. The absorbance value was measured on a microplate reader^[13]. (effective rate %=(ODdrug−ODmodel)/(ODcontrol−ODmodel)*100).

CC(/C=C/C=C(\C)C(=O)O[C@@H]1OC(CO)[C@@H](O)C(O)C1O)=C\C=C\C=C(C)\C=C\C=C(/C)C(=O)O[C@@H]1OC(CO[C@@H]2OC(CO)[C@@H](O)C(O)C2O)[C@@H](O)C(O)C1O (stereo partly drawn) [Compound 2, crocetin-β-D-glucopyranosyl-β-D-gentiobioside]
Neuroprotective effective rate (recovery of viability relative to glutamate model) (drug 10^−5 moL/L): 0.00 ± 0.00%
Neuroprotective effective rate (recovery of viability relative to glutamate model) (drug 10^−6 moL/L): 0.00 ± 0.00%
Neuroprotective effective rate (recovery of viability relative to glutamate model) (drug 10^−7 moL/L): 0.00 ± 0.00%

CC(/C=C/C=C(\C)C(=O)O)=C\C=C\C=C(C)\C=C\C=C(/C)C(=O)O[C@@H]1OC(CO)[C@@H](O)C(O)C1O (stereo partly drawn) [Compound 9, crocetin mono-β-D-glucopyranoside]
Neuroprotective effective rate (recovery of viability relative to glutamate model) (drug 10^−5 moL/L): 0.00 ± 0.00%
Neuroprotective effective rate (recovery of viability relative to glutamate model) (drug 10^−6 moL/L): 0.00 ± 0.00%
Neuroprotective effective rate (recovery of viability relative to glutamate model) (drug 10^−7 moL/L): 0.00 ± 0.00%

CC(/C=C/C=C(\C)C(=O)O[C@@H]1O[C@H](CO[C@@H]2O[C@H](CO)[C@@H](O)[C@H](O)[C@H]2O)[C@@H](O)[C@H](O)[C@H]1O)=C\C=C\C=C(C)\C=C\C=C(/C)C(=O)O[C@@H]1[C@H](O)C[C@@](O)(C(=O)O)C[C@H]1OC(=O)/C=C/c1ccc(O)c(O)c1 [Compound 5, neocrocin B]
Neuroprotective effective rate (recovery of viability relative to glutamate model) (drug 10^−5 moL/L): 40.03 ± 3.91 %
Neuroprotective effective rate (recovery of viability relative to glutamate model) (drug 10^−6 moL/L): 27.63 ± 5.36 %
Neuroprotective effective rate (recovery of viability relative to glutamate model) (drug 10^−7 moL/L): 9.89 ± 2.93%

CC(/C=C/C=C(\C)C(=O)O[C@@H]1OC(CO)[C@@H](O)C(O)C1O)=C\C=C\C=C(C)\C=C\C=C(/C)C(=O)O[C@@H]1OC(CO)[C@@H](O)C(O)C1O (stereo partly drawn) [Compound 3, crocetin di-β-D-glucopyranoside]
Neuroprotective effective rate (recovery of viability relative to glutamate model) (drug 10^−5 moL/L): 0.00 ± 0.00%
Neuroprotective effective rate (recovery of viability relative to glutamate model) (drug 10^−6 moL/L): 0.00 ± 0.00%
Neuroprotective effective rate (recovery of viability relative to glutamate model) (drug 10^−7 moL/L): 0.00 ± 0.00%
